Patent US12024500B2, “Five-membered ring-substituted pyridazinol compounds and derivatives, preparation methods, herbicidal compositions and applications thereof” (Qingdao Kingagroot Chemical Compound Co., Ltd., priority 2018, dated 2024)

Experiments:
Test in all cases: Post-emergence weed control test (greenhouse pot, spray)
Assay type in all cases: in vivo
Veronica polita = conditions: 3 weeks after spraying; for weed control effect (activity level, fresh weight growth inhibition rate), Veronica polita: 3000 g/ha
Text: (§1) The activity level standard of harmful plant destruction (i.e. growth inhibition rate) is as follows: • Level 10: completely dead; • Level 9: above 90% growth inhibition rate; • Level 8: above 80% growth inhibition rate; • Level 7: above 70% growth inhibition rate; • Level 6: above 60% growth inhibition rate; • Level 5: above 50% growth inhibition rate; • Level 4: above 40% growth inhibition rate; • Level 3: above 30% growth inhibition rate; • Level 2: above 20% growth inhibition rate; • Level 1: below 20% growth inhibition rate; • Level 0: no effect.
(§2) The above described growth inhibition rates are fresh weight inhibition rates.
(§3) Experiment of post-emergence test: monocotyledonous and dicotyledonous weed seeds as well as main crop seeds (i.e., wheat, corn, rice, soybean, cotton, oilseed rape, millet and sorghum) were put into a plastic pot loaded with soil, then covered with 0.5-2 cm of soil, and the seeds were allowed to grow in good greenhouse environment. The test plants were treated at 4-5 leaf stage 2-3 weeks after sowing. The test compounds of the invention were dissolved in acetone respectively, then added with Tween-80 and diluted by a certain amount of water to give solutions with certain concentrations. The solution was sprayed to the plants with a sprayer. The plants were cultured for 3 weeks in the greenhouse.

Amaranthus retroflexus = conditions: 3000 g/ha, 3 weeks after spraying
Text: as §1, §2, §3

Rorippa indica = conditions: 3 weeks after spraying; for weed control effect (activity level, fresh weight growth inhibition rate), Rorippa indica: 3000 g/ha
Text: as §1, §2, §3

Chenopodiaceae = conditions: 3000 g/ha, 3 weeks after spraying
Text: as §1, §2, §3

| Compound | weed control effect (activity level, fresh weight growth inhibition rate), Veronica polita (Veronica polita) | weed control effect (activity level, fresh weight growth inhibition rate), Amaranthus retroflexus (Amaranthus retroflexus) | weed control effect (activity level, fresh weight growth inhibition rate), Rorippa indica (Rorippa indica) | weed control effect (activity level, fresh weight growth inhibition rate), Chenopodiaceae (Chenopodiaceae) | weed control effect (activity level), Veronica polita, comparison experiment (Veronica polita; 300 g/ha) | weed control effect (activity level), Rorippa indica, comparison experiment (Rorippa indica; 300 g/ha) |
| --- | --- | --- | --- | --- | --- | --- |
| Cn1ccnc1-c1nnc(Cl)cc1O [Compound 3] | 10 (Level 10: completely dead) | 10 (Level 10: completely dead) | 10 (Level 10: completely dead) | 10 (Level 10: completely dead) | – | – |
| Cn1cncc1-c1nnc(Cl)cc1O [Compound 4] | 10 (Level 10: completely dead) | 10 (Level 10: completely dead) | 10 (Level 10: completely dead) | 10 (Level 10: completely dead) | – | – |
| Cc1ccc(-c2nnc(Cl)cc2O)s1 [Compound 27] | 10 (Level 10: completely dead) | 10 (Level 10: completely dead) | 10 (Level 10: completely dead) | 10 (Level 10: completely dead) | – | – |
| N#Cc1ccc(-c2nnc(Cl)cc2O)s1 [Compound 33] | 10 (Level 10: completely dead) | 10 (Level 10: completely dead) | 10 (Level 10: completely dead) | 10 (Level 10: completely dead) | 10 | 10 |
| CCn1nc(C2CC2)cc1-c1nnc(Cl)cc1O [Compound 44] | 10 (Level 10: completely dead) | 10 (Level 10: completely dead) | 10 (Level 10: completely dead) | 10 (Level 10: completely dead) | – | – |
| Cn1nc(C2CC2)cc1-c1nnc(C(F)(F)C(F)(F)F)cc1O [Compound 45] | 10 (Level 10: completely dead) | 10 (Level 10: completely dead) | 10 (Level 10: completely dead) | 10 (Level 10: completely dead) | – | – |
| Cn1nc(Cl)cc1-c1nnc(Cl)cc1O [Compound 48] | 10 (Level 10: completely dead) | 10 (Level 10: completely dead) | 10 (Level 10: completely dead) | 10 (Level 10: completely dead) | – | – |
| Oc1cc(Cl)nnc1-c1ccnn1Cc1ccccc1 [Compound 54] | 10 (Level 10: completely dead) | 10 (Level 10: completely dead) | 10 (Level 10: completely dead) | 10 (Level 10: completely dead) | – | – |
| Cn1nc(F)cc1-c1nnc(Cl)cc1O [Compound 56] | 10 (Level 10: completely dead) | 10 (Level 10: completely dead) | 10 (Level 10: completely dead) | 10 (Level 10: completely dead) | – | – |
| Cn1nc(C2CC2)cc1-c1nnc(Cl)cc1O [Compound 61] | 10 (Level 10: completely dead) | 10 (Level 10: completely dead) | 10 (Level 10: completely dead) | 10 (Level 10: completely dead) | – | – |
| Cn1nc(C#N)cc1-c1nnc(Cl)cc1O [Compound 71] | 10 (Level 10: completely dead) | 10 (Level 10: completely dead) | 10 (Level 10: completely dead) | 10 (Level 10: completely dead) | – | – |
| Cn1nc([N+](=O)[O-])cc1-c1nnc(Cl)cc1O [Compound 72] | 10 (Level 10: completely dead) | 10 (Level 10: completely dead) | 10 (Level 10: completely dead) | 10 (Level 10: completely dead) | – | – |
| Cn1nc(-c2ccccc2)cc1-c1nnc(Cl)cc1O [Compound 73] | 10 (Level 10: completely dead) | 10 (Level 10: completely dead) | 10 (Level 10: completely dead) | 10 (Level 10: completely dead) | – | – |
| Cn1nc(C(F)F)cc1-c1nnc(Cl)cc1O [Compound 74] | 10 (Level 10: completely dead) | 10 (Level 10: completely dead) | 10 (Level 10: completely dead) | 10 (Level 10: completely dead) | – | – |
| Cn1nc(CC(F)(F)F)cc1-c1nnc(Cl)cc1O [Compound 75] | 10 (Level 10: completely dead) | 10 (Level 10: completely dead) | 10 (Level 10: completely dead) | 10 (Level 10: completely dead) | – | – |
| Cn1ncc(F)c1-c1nnc(Cl)cc1O [Compound 76] | 10 (Level 10: completely dead) | 10 (Level 10: completely dead) | 10 (Level 10: completely dead) | 10 (Level 10: completely dead) | – | – |
| Cn1ncc(Cl)c1-c1nnc(Cl)cc1O [Compound 77] | 10 (Level 10: completely dead) | 10 (Level 10: completely dead) | 10 (Level 10: completely dead) | 10 (Level 10: completely dead) | – | – |
| Cn1ncc(Br)c1-c1nnc(Cl)cc1O [Compound 78] | 10 (Level 10: completely dead) | 10 (Level 10: completely dead) | 10 (Level 10: completely dead) | 10 (Level 10: completely dead) | – | – |
| Cn1ncc(I)c1-c1nnc(Cl)cc1O [Compound 79] | 10 (Level 10: completely dead) | 10 (Level 10: completely dead) | 10 (Level 10: completely dead) | 10 (Level 10: completely dead) | – | – |
| Cc1cnn(C)c1-c1nnc(Cl)cc1O [Compound 80] | 10 (Level 10: completely dead) | 10 (Level 10: completely dead) | 10 (Level 10: completely dead) | 10 (Level 10: completely dead) | – | – |
